The values that follow come from patent publication US20210379012A1, “ANTIANGIOGENIC CHROMANE DERIVATIVE AND USES THEREOF” (Indiana University Research and Technology Corporation, priority 2018, published 2021).

Type in all cases: cell-based
For assay [1], the system named is human retinal endothelial cells (HRECs). In words: alamarBlue proliferation assay, HRECs. To be noted: HREC, 48 hours' incubation. The protocol:
(§1) EBM-2 and IMDM growth media were purchased from Lonza (Walkersville, Md., USA). RPMI and DMEM media were purchased from Thermo Scientific (Waltham, Mass., USA). ARPE19 cells were obtained from ATCC (Manassas, Va., USA). HRECs and Attachment Factor were purchased from Cell Systems (Kirkland, Wash., USA) and were used between passages 5 and 8. Endothelial Growth Medium (EGM-2) was prepared by mixing the contents of an EGM-2 “Bullet Kit” (Cat. no. CC-4176) with Endothelial Basal Medium (EBM) (Lonza). The EGM-2 “Bullet Kit” contains hydrocortisone, human fibroblast growth factor (hFGF), VEGF, R3-insulin like growth factor (R3-IGF-1), ascorbic acid, human epidermal growth factor (hEGF), gentamycin and heparin along with 2% fetal bovine serum (FBS). ARPE19 cells were grown in DEM medium containing 10% FBS and 1% penicillin-streptomycin (pen-strep). 92-1 cells were grown in RPMI medium containing 10% FBS and 1% pen-strep. Y79 cells were grown in RB medium (IMDM+10% FBS+55 μM β-mercaptoethanol+10 μg/mL Insulin+1% pen-strep). […]
(§2) The proliferation of cells was monitored by an alamarBlue based fluorescence assay. […] At the end of the incubation, 11.1 μL of alamarBlue reagent was added and 4 hours after, fluorescence readings were taken with excitation and emission wavelengths of 560 nm and 590 nm respectively. Data were analyzed and dose response curves generated using GraphPad Prism software (v. 6.0).
On the technique in general: Alamar Blue is a resazurin reagent that responds to reducing activity.

For assay [2], the system named is ARPE19 retinal pigment epithelial cells. In words: alamarBlue proliferation assay, ARPE19. To be noted: Homo sapiens, ARPE-19, 48 hours' incubation. The protocol: as §1, §2
Assay [3] has as its system 92-1 uveal melanoma cells. Kind of assay: alamarBlue proliferation assay, 92-1. To be noted: 48 hours' incubation. Here is the method: as §1, §2
For another assay, the system named is Y79 retinoblastoma cells. Kind of assay: alamarBlue proliferation assay, Y79. To be noted: 48 hours' incubation. Here is the method: as §1, §2

Consider `COc1ccc(CC2COc3cc(OC)c(OC)c(OC)c3C2)cc1O` (stereo not shown) [compound (1)], for which the GI50 was 1.52 nM in assay [1], above 100 µM in assay [2], 28 µM in assay [3] and 17 µM in the assay on Y79 retinoblastoma cells.

Usually GI50 stands for the concentration giving 50% growth inhibition.
